{"source": "patent EP0382538A2", "about": "“A process for the preparation of cysteine-rich polypeptides, including echistatin” (MERCK & CO. INC., priority 1989, dated 1990)", "key": {"[1]": {"test_system": "HUMAN PLATELET AGGREGATION", "experiment": "Platelet aggregation assay (ADP-initiated, fibrinogen-dependent, Chronolog aggregometer)", "assay_type": "cell-based", "details": "inhibition of rate of human platelet aggregation by 50%; washed platelets 2 x 10⁸/ml, fibrinogen 100 µg/mL, Ca²⁺ 1 mM, 10 µM ADP, 37°C; platelets from 2-4 donors, duplicate; read-out: IC₅₀(µM) (95% CONFIDENCE LIMITS)", "experimental": "Platelet aggregation was measured at 37°C in a Chronolog aggregometer. The reaction mixture contained washed platelets (2 x 10⁸/ml), fibrinogen (100 µg/mL), Ca²⁺ (1 mM), and the platelet aggregation inhibitor fraction to be tested. The aggregation was initiated by adding 10 µM ADP 1 min after the other components had been added. The reaction was allowed to proceed for at least 2 min. The extent of inhibition of aggregation was expressed as the percentage of the rate of aggregation observed in the absence of inhibitor. […]\nThe concentration of peptide necessary to inhibit the rate of human platelet aggregation by 50% (IC₅₀) was determined using platelets from 2-4 donors. Determinations were performed in duplicate for each donor."}, "platelet aggregation": {"test_system": "platelet aggregation", "experiment": "Platelet aggregation initiated by other agonists", "assay_type": "cell-based", "details": "aggregation initiated by thrombin, epinephrin, collagen, or platelet activating factor"}, "[2]": {"experiment": "Preliminary in vivo antithrombotic studies"}}, "data": [{"substance": "Echistatin [Synthetic Echistatin]", "values": [{"measurement": "IC50", "setting": "[1]", "value": 0.033, "unit": "µM"}, {"measurement": "prevention of platelet aggregation", "setting": "platelet aggregation", "value": "prevents aggregation"}, {"measurement": "antithrombotic effect in vivo", "setting": "[2]", "value": "very effective antithrombotic agent"}]}]}
